What was measured:
rats = conditions: halothane for 30 minutes; Hendricks et al. 1984; cited from earlier work
[1] = system: patients undergoing valve surgery plus CABG or CABG alone with aortic cross clamping; assay: Double-blind placebo-controlled clinical trial of intravenous D-Ribose in cardiac surgery: ejection fraction by echocardiography; type: in vivo, human; conditions: placebo EF declined; ANOVA repeated measures p=0.04
Excerpt: A protocol was devised to test whether human subjects undergoing either valve surgery plus coronary artery bypass graft (CABG) or CABG alone with decreased heart function would benefit from the administration of ribose following heart surgery as did the healthy dogs of the Foker study. […] Inclusion criteria were: • Males or females aged 18 or older • Patients with documented coronary artery disease undergoing CABG with an ejection fraction (EF) of ≦35% based on echocardiography, radionuclide imaging or cardiac catheterization done within eight weeks of surgery. […] For both the transesophageal and transthoracic echocardiograms, the following long axis and short axis mid-papillary area changes were measured in triplicate by acoustic quantification techniques: end diastolic area (EDA), end systolic area (ESA), fractional area change (FAC), +dA/dt and -dA/dt. All area change data were also analyzed by manual off line analysis. EF was also determined off line using a long axis view. In addition, regional wall motion was quantified as the following: normal=1, hypokinetic=2, akinetic=3 and dyskinetic=4. The wall motion index score (WMIS) and percentage normal myocardium were calculated by reading a maximum of sixteen segments. […]

[2] = Blood glucose monitoring and clinical laboratory safety in the intravenous D-Ribose cardiac surgery trial; type: in vivo, human
Description: Blood glucose levels were determined hourly, after initiation of the study drug infusion, by dextrastix (Accu-Chk III, Boehringer Mannheim Corp. Indianapolis Ind.) using blood from an intraarterial catheter. If the blood glucose level remained stable for 12 hours, then subsequent blood glucose levels were measured every 4 to 6 hours until the study drug infusion was stopped. Other clinical laboratory measurements including complete CBC with differential, platelet count, electrolytes=, liver function studies, serum osmolarity, and urinalysis were completed the morning following surgery. Abnormal laboratory tests were repeated as clinically indicated until normal or determined not to be clinically significant.
Five patients (28%) in the ribose treated group developed hypoglycemia (fingerstick glucose<70 mg/dl)) a known side effect of this pentose sugar. No placebo treated patients developed hypoglycemia. The mean glucose level in those patients developing hypoglycemia was 58 mg/dl. The lowest glucose level was 31 mg/dl. […] The study drug infusion was stopped in two subjects because of hypoglycemia. […] There were no statistical differences in the other clinical laboratory measurements.

[3] = system: adult patients selected for OCBP revascularization; assay: Presurgical oral D-ribose loading before off cardiopulmonary bypass (OCBP) revascularization: cardiac indices; type: in vivo, human; conditions: 24 patients oral D-ribose preoperatively vs 20 without; baseline to post-operative; p<0.028
Excerpt: Patients with stable coronary artery disease or patients presenting with acute myocardial infarction may undergo revascularization using an “off” cardiopulmonary bypass procedure (“OCBP”). This procedure avoids the deleterious effects of cross-clamping in patients who can be selected for the procedure. The selection criteria include: accessibility of the grafts; number of the grafts; condition of the patient. When the area to be revascularized is at the back of the heart, the heart will need to be handled and rotated, which would interfere with the beating of the heart. If several grafts are needed, the time of operation is prolonged and the patient's heart will need to support circulation for a long time. Finally, a poorly functioning heart will need the assistance of the pump to support circulation. Nevertheless, in properly selected patients, the benefits of avoiding cross-clamping are substantial.
Forty-four adult patients were enrolled in a trial. At least one-third of the patents had sustained an acute myocardial infarction prior to presentation and pre-operative ejection fractions ranged from 30-72%. All patients were selected for OCBP revascularization with 20 patients consuming no pre-operative ribose and 24 patients given oral D-ribose preoperatively, cardiac indices were measured at baseline and post-operatively. […]

[4] = system: patients recovering from hip or knee replacement operations; assay: Anecdotal results from non-cardiac surgery with general anaesthesia; type: in vivo, human
Excerpt: For example, a person underwent two hip replacement operations, five months apart. With the second operation, they began taking oral ribose immediately after their recovery from anaesthesia. Their recovery to a feeling of alertness and energy was more rapid than after the first operation. Furthermore, their level of pain was less. Likewise, a person also underwent two knee replacement operations. With the second operation, they self-administered D-Ribose pre- and postoperatively. Their recovery to a feeling of alertness and energy was more rapid than after the first operation. Bauer et al. (Z. Geb. Neonatal 2001 May-June, 205(3):80-85) studied the efficacy of oral glucose for treating procedural pain in neonates. […] The authors proposed that the orogustatory stimulation by the sweet taste caused an endorphin release. It is not known whether the result seen was due to the local effect or to a systemic effect of glucose.

[5] = system: patients with aortic valve disease undergoing AVR; assay: Planned clinical trial: preconditioning with oral D-Ribose before cross clamping, then intravenous infusion; type: in vivo, human; conditions: oral D-Ribose 7 or 14 days before surgery, then i.v. 100 mg/kg/hour for five days
Excerpt: A single-center, randomized, double-blinded placebo-controlled clinical trial was designed to determine if preoperative oral administration of D-Ribose, following by peri-operative and operative intravenous infusion of D-Ribose could improve the ejection fraction and other functional parameters of hearts that are cross-clamped for various cardiac surgical procedures. Thirty (30) patients meeting the inclusion and exclusion criteria and who have signed informed consent forms will be randomized to receive oral D-Ribose (15) or D-Glucose (placebo) (15) for seven or 14 days prior to their surgical procedure and intravenous 5% […] (5% D-Glucose in normal saline, 0.5 mL/kg/hour) or 10% pyrogen-free D-Ribose in 5% D5W at a dose of 100 mg/kg/hour for five (5) days through a pulmonary artery cordis) beginning at the time of aortic cross clamping. […] Patients will be evaluated baseline ×2, (once prior to beginning oral test supplement and again within three days prior to surgical procedure), during and after surgery, and at days 1, 5 and 7. […] Patients will be evaluated for eligibility within three days to first test article administration and evaluation will be updated within three days prior to surgery. […] A medication history will be taken and all medications recorded in the case report. […]

Wistar rats = assay: Planned non-cardiac sham abdominal surgery study under halothane anaesthesia; type: in vivo, rat; conditions: D-Ribose before, during and after sham operation
Description: Littered-paired Wistar rats will be preconditioned with oral D-Ribose (250 mg/day, 10 animals) as a test drug or D-Glucose(250 mg/day, 10 animals) as a placebo for five days. Following the preconditioning, the rats will be anesthetized with halothane, intubated for artificial respiration and paralyzed with curare. Following general anaesthesia, the rats will be given either the test drug or placebo, intravenously (IV). A two-inch abdominal incision will be made and the viscera will be carefully manipulated to simulate an abdominal exploratory surgery. The incision will be closed and the animals will be held under anaesthesia for one additional hour. Following that hour, anaesthesia will be discontinued and the IV infusion will be halted. The animals will be placed individually in activity cages and their activity will be assessed daily for five days. Test drug or placebo will be added to the drinking water at a dosage of 5% wt/vol. The blinded results will be observed for: first movement (return to consciousness following the sham operation) and daily activity over the first day and next five days. Food and water intake and gastrointestinal function will be measured.

healthy dog hearts = conditions: D-Ribose from reperfusion for at least four days; U.S. Pat. No. 4,719,201; cited from earlier work

| SMILES | behavioural effects during the first week after anaesthesia (rats) | course of EF from baseline to Day 7 versus placebo [1] | patients with neurological or other clinical symptoms associated with hypoglycemia ([2]; hypoglycemic patients of the ribose treated group) | lowest glucose level ([2]; ribose treated group) [mg/dL] | mean glucose level in patients developing hypoglycemia ([2]; ribose treated group) [mg/dL] | patients who developed hypoglycemia (fingerstick glucose<70 mg/dl) ([2]; ribose treated group, five patients, none in placebo) [%] | greater increase in cardiac indices compared to controls [3] [%] | recovery to a feeling of alertness and energy compared with first operation ([4]; oral ribose at second operation, single patients) | level of pain compared with first operation ([4]; person, oral ribose after second hip replacement) | expected myocardial function versus placebo [5] | expected activity during the following five days versus placebo (Wistar rats) | expected first movement after anaesthesia versus placebo (Wistar rats) | time to cardiac arrest with cardioplegia containing ribose versus animals not given ribose (cross-bred sheep; difference not statistically significant) | tolerability of supplemental ribose (cross-bred sheep; in vivo) | time quiet and inactive after extubation (cross-bred sheep; untreated series: additional 2 hours) | time to assume a consciousness state versus animals not given ribose (cross-bred sheep; upon weaning from the ventilator) | ATP recovery after global myocardial ischemia (healthy dog hearts) |
| --- | --- | --- | --- | --- | --- | --- | --- | --- | --- | --- | --- | --- | --- | --- | --- | --- | --- |
| FC(F)(F)C(Cl)Br (centres unmarked) [halothane] | reduced spontaneous activity and neurological deficit | – | – | – | – | – | – | – | – | – | – | – | – | – | – | – | – |
| O=C[C@H](O)[C@H](O)[C@H](O)CO [D-Ribose] | – | EF was maintained | None | 31 | 58 | 28 | 49 | more rapid | less | better myocardial function | increased activity | earlier movement | somewhat faster | no metabolic or chemical abnormalities | about one | faster | enhanced ATP recovery |

— patent publication US20090197818A1, “Use Of Ribose for Recovery From Anaesthesia” (priority 2004, published 2009)
